Where a name gives a salt, the structure may show the parent alone.
How the values were obtained:
MASP-2 (CCP1-CCP2-SP) = target: T1, MASP-2 (CCP1-CCP2-SP) (Homo sapiens, UniProt O00187); assay: Enzymatic assay for MASP-2 inhibitory activity (fluorogenic substrate); format: biochemical
T1 construct: 15 μL of Enzyme MASP-2 (CCP1-CCP2-SP) in Assay Buffer
Summary of the method: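 Fluorescence was normalized between no-enzyme and DMSO-only controls to derive % activity, with IC50 taken as equivalent to Ki except for tight-binding inhibitors. Reactions ran 20 min at room temperature in HEPES pH 7.4/NaCl/Tween 20 buffer, using the C2-derived fluorogenic substrate, before acetic acid stop.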

human α-thrombin = target: T2, human α-thrombin (Homo sapiens, UniProt P00734); assay: Enzymatic assay for thrombin (fluorogenic peptide substrate Boc-VPR-AMC); format: biochemical
T2 construct: enzyme (human α-thrombin (BioPharm® Lab.)) in assay buffer; purchased BioPharm® Lab
Summary of the method: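 Assay conditions kept the reaction linear in time, enzyme and substrate, so IC50 approximated Ki apart from tight- or slow-binding cases. Boc-VPR-AMC cleavage by human α-thrombin proceeded 20 min at room temperature in Hepes pH 7.4/NaCl/Tween 20 buffer, then was acid-quenched and read by fluorescence.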

T1 sequence (O00187 445-686 limits assumed): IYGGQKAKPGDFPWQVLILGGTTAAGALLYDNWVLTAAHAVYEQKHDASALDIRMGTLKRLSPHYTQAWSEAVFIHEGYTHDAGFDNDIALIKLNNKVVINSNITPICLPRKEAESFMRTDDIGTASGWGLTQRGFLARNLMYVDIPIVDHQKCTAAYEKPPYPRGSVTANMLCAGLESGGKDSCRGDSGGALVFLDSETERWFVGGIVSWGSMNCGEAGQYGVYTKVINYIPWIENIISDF
T1 sequence (O00187 287-444 partner limits assumed): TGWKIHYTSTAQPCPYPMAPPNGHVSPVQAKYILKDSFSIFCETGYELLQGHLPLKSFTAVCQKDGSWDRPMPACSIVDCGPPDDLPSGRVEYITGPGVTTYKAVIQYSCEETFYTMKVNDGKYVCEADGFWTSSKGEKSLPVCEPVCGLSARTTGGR

Ki (MASP-2 (CCP1-CCP2-SP)) | Ki (human α-thrombin) | Structure (SMILES)
< 0.5 µM | 0.5 to 2.5 µM | Cc1nc(N)ccc1CNC(=O)[C@@H]1CCc2cnc(NCC3CCOCC3)c(=O)n21 [Compound 116, (S)—N-((6-amino-2-methylpyridin-3-yl)methyl)-4-oxo-3-(((tetrahydro-2H-pyran-4-yl)methyl)amino)-4,6,7,8-tetrahydropyrrolo[1,2-a]pyrazine-6-carboxamide]
< 0.5 µM | 10 to 25 µM | Cc1cc2[nH]c(CNC(=O)[C@@H]3C[C@H](Cc4ccccc4)c4cnc(NC5CCC5)c(=O)n43)cc2cn1 [Compound 139, (6S,8S)-8-benzyl-3-(cyclobutylamino)-N-((6-methyl-1H-pyrrolo[3,2-c]pyridin-2-yl)methyl)-4-oxo-4,6,7,8-tetrahydropyrrolo[1,2-a]pyrazine-6-carboxamide]
< 0.5 µM | 2.5 to 10 µM | Cc1cc(C)cc(CNc2ncc3n(c2=O)[C@H](C(=O)NCc2cc4cnccc4[nH]2)C[C@@H]3C)c1 [Compound 153, (6S,8S)-N-((1H-pyrrolo[3,2-c]pyridin-2-yl)methyl)-3-((3,5-dimethylbenzyl)amino)-8-methyl-4-oxo-4,6,7,8-tetrahydropyrrolo[1,2-a]pyrazine-6-carboxamide]
< 0.5 µM | < 0.5 µM | CCc1cccc(CNc2ncc3n(c2=O)[C@H](C(=O)NCc2ccc(N)nc2C)CC3)c1 [Compound 46, (S)-N-((6-amino-2-methylpyridin-3-yl)methyl)-3-((3-ethylbenzyl)amino)-4-oxo-4,6,7,8-tetrahydropyrrolo[1,2-a]pyrazine-6-carboxamide]
< 0.5 µM | 0.5 to 2.5 µM | Cc1nc(N)ccc1CNC(=O)[C@@H]1CCc2c(Cl)nc(NCc3cccnc3)c(=O)n21 [Compound 136, (S)-N-((6-amino-2-methylpyridin-3-yl)methyl)-1-chloro-4-oxo-3-((pyridin-3-ylmethyl)amino)-4,6,7,8-tetrahydropyrrolo[1,2-a]pyrazine-6-carboxamide]
< 0.5 µM | < 0.5 µM | Cc1cc(C)cc(CNc2ncc3n(c2=O)[C@H](C(=O)NCc2cc4c(s2)CNC4)CC3)c1 [Compound 96, (S)-N-((5,6-dihydro-4H-thieno[2,3-c]pyrrol-2-yl)methyl)-3-((3,5-dimethylbenzyl)amino)-4-oxo-4,6,7,8-tetrahydropyrrolo[1,2-a]pyrazine-6-carboxamide]
< 0.5 µM | 0.5 to 2.5 µM | Cc1nc(N)ccc1CNC(=O)[C@@H]1CCc2cnc(NCc3cnn(C)c3)c(=O)n21 [Compound 167, (S)-N-((6-amino-2-methylpyridin-3-yl)methyl)-3-(((1-methyl-1H-pyrazol-4-yl)methyl)amino)-4-oxo-4,6,7,8-tetrahydropyrrolo[1,2-a]pyrazine-6-carboxamide trifluoroacetate]
< 0.5 µM | > 25 µM | Cc1cc(F)cc(CNc2nc(-c3cnn(C(F)F)c3)c3n(c2=O)[C@H](C(=O)NCc2cc4c(s2)CNC4)CC3)c1 [Compound 219, (S)-1-(1-(difluoromethyl)-1H-pyrazol-4-yl)-N-((5,6-dihydro-4H-thieno[2,3-c]pyrrol-2-yl)methyl)-3-((3-fluoro-5-methylbenzyl)amino)-4-oxo-4,6,7,8-tetrahydropyrrolo[1,2-a]pyrazine-6-carboxamide trifluoroacetate]
< 0.5 µM | 10 to 25 µM | CC[C@H]1C[C@@H](C(=O)NCc2cc3cnccc3[nH]2)n2c1c(Cl)nc(NCc1ccccc1)c2=O [Compound 159, (6S,8S)—N-((1H-pyrrolo[3,2-c]pyridin-2-yl)methyl)-3-(benzylamino)-1-chloro-8-ethyl-4-oxo-4,6,7,8-tetrahydropyrrolo[1,2-a]pyrazine-6-carboxamide]
< 0.5 µM | 2.5 to 10 µM | Cc1nc(N)ccc1CNC(=O)[C@@H]1CCc2c(Cl)nc(NCCC(F)F)c(=O)n21 [Compound 18, (S)-N-((6-amino-2-methylpyridin-3-yl)methyl)-1-chloro-3-((3,3-difluoropropyl)amino)-4-oxo-4,6,7,8-tetrahydropyrrolo[1,2-a]pyrazine-6-carboxamide]
< 0.5 µM | < 0.5 µM | Cc1ccc(F)cc1CNc1ncc2n(c1=O)[C@H](C(=O)NCc1ccc(N)nc1C)CC2 [Compound 65, (S)-N-((6-amino-2-methylpyridin-3-yl)methyl)-3-((5-fluoro-2-methylbenzyl)amino)-4-oxo-4,6,7,8-tetrahydropyrrolo[1,2-a]pyrazine-6-carboxamide]
< 0.5 µM | 2.5 to 10 µM | CCc1cccc(CNc2ncc3n(c2=O)[C@H](C(=O)N[C@H](C)c2ccc(N)nc2)CC3)c1 [Compound 195, (S)-N-((R)-1-(6-aminopyridin-3-yl)ethyl)-3-((3-ethylbenzyl)amino)-4-oxo-4,6,7,8-tetrahydropyrrolo[1,2-a]pyrazine-6-carboxamide trifluoroacetate]
< 0.5 µM | 10 to 25 µM | Cc1cc(C)cc(CNc2ncc3n(c2=O)[C@H](C(=O)NCc2cnc4c(c2)CNC4)CC3)c1 [Compound 108, (S)—N-((6,7-dihydro-5H-pyrrolo[3,4-b]pyridin-3-yl)methyl)-3-((3,5-dimethylbenzyl)amino)-4-oxo-4,6,7,8-tetrahydropyrrolo[1,2-a]pyrazine-6-carboxamide]
< 0.5 µM | < 0.5 µM | Cc1cc(F)cc(CNc2ncc3n(c2=O)[C@H](C(=O)NCc2cc(Cl)ccc2-n2cnnn2)CC3)c1 [Compound 179, (S)—N-(5-chloro-2-(1H-tetrazol-1-yl)benzyl)-3-((3-fluoro-5-methylbenzyl)amino)-4-oxo-4,6,7,8-tetrahydropyrrolo[1,2-a]pyrazine-6-carboxamide]
2.5 to 10 µM | > 25 µM | O=C(NCc1cc2c(s1)CNC2)[C@@H]1CCc2cnc(N3CC(c4ccccc4)C3)c(=O)n21 [Compound 119, (S)—N-((5,6-dihydro-4H-thieno[2,3-c]pyrrol-2-yl)methyl)-4-oxo-3-(3-phenylazetidin-1-yl)-4,6,7,8-tetrahydropyrrolo[1,2-a]pyrazine-6-carboxamide]
< 0.5 µM | 2.5 to 10 µM | Cc1cccc(CNc2nc(Cl)c3n(c2=O)[C@H](C(=O)NCc2cc4c(s2)CNC4)CC3)c1F [Compound 32, (S)-1-chloro-N-((5,6-dihydro-4H-thieno[2,3-c]pyrrol-2-yl)methyl)-3-((2-fluoro-3-methylbenzyl)amino)-4-oxo-4,6,7,8-tetrahydropyrrolo[1,2-a]pyrazine-6-carboxamide]
< 0.5 µM | 2.5 to 10 µM | Cc1cccc(CNc2nc(Cl)c3n(c2=O)[C@H](C(=O)NCc2cc4cnccc4[nH]2)CC3)c1 [Compound 114, (S)-N-((1H-pyrrolo[3,2-c]pyridin-2-yl)methyl)-1-chloro-3-((3-methylbenzyl)amino)-4-oxo-4,6,7,8-tetrahydropyrrolo[1,2-a]pyrazine-6-carboxamide trifluoroacetate]
< 0.5 µM | 0.5 to 2.5 µM | CC(C)(O)c1cccc(CNc2ncc3n(c2=O)[C@H](C(=O)NCc2cc4cnccc4[nH]2)CC3)c1 [Compound 67, (S)-N-((1H-pyrrolo[3,2-c]pyridin-2-yl)methyl)-3-((3-(2-hydroxypropan-2-yl)benzyl)amino)-4-oxo-4,6,7,8-tetrahydropyrrolo[1,2-a]pyrazine-6-carboxamide]
< 0.5 µM | 0.5 to 2.5 µM | CCc1cc(CNc2ncc3n(c2=O)[C@H](C(=O)NCc2cc4c(s2)CNC4)CC3)cc(-c2ccccc2)c1 [Compound 262]
